system: G3BP1 NFT2; assay type: binding, human; conditions: library DMS-BM; bait G3BP1 NFT2; prey CAPRIN1; AQMQGPYNFIQDSM(averaged): mean of the two overlapping peptides over the shared positions

Point of comparison: “AQMQGPYNFIQDSM(averaged) D12I (AQMQGPYNFIQISM)”, “DMS position-specific score (PSSM value) per amino-acid substitution, averaged” value 0.0003022. Against it:
- AQMQGPYNFIQDSM(averaged) N8P (AQMQGPYPFIQDSM) — higher, 0.002565
- AQMQGPYNFIQDSM(averaged) S13D (AQMQGPYNFIQDDM) — higher, 0.02096
- AQMQGPYNFIQDSM(averaged) I10A (AQMQGPYNFAQDSM) — higher, 0.0009869
- AQMQGPYNFIQDSM(averaged) M3R (AQRQGPYNFIQDSM) — higher, 0.003692
- AQMQGPYNFIQDSM(averaged) Q11E (AQMQGPYNFIEDSM) — lower, 0
- AQMQGPYNFIQDSM(averaged) M14F (AQMQGPYNFIQDSF) — higher, 0.1772
- AQMQGPYNFIQDSM(averaged) N8H (AQMQGPYHFIQDSM) — higher, 0.02395
- AQMQGPYNFIQDSM(averaged) Q4S (AQMSGPYNFIQDSM) — higher, 0.003246
- AQMQGPYNFIQDSM(averaged) G5W (AQMQWPYNFIQDSM) — higher, 0.033
- AQMQGPYNFIQDSM(averaged) A1N (NQMQGPYNFIQDSM) — higher, 0.01838
- AQMQGPYNFIQDSM(averaged) F9E (AQMQGPYNEIQDSM) — lower, 0
- AQMQGPYNFIQDSM(averaged) F9H (AQMQGPYNHIQDSM) — lower, 0
- AQMQGPYNFIQDSM(averaged) S13T (AQMQGPYNFIQDTM) — higher, 0.05884
- AQMQGPYNFIQDSM(averaged) P6M (AQMQGMYNFIQDSM) — higher, 0.05352
- AQMQGPYNFIQDSM(averaged) S13Y (AQMQGPYNFIQDYM) — higher, 0.0135
- AQMQGPYNFIQDSM(averaged) N8S (AQMQGPYSFIQDSM) — higher, 0.04423
- AQMQGPYNFIQDSM(averaged) M14P (AQMQGPYNFIQDSP) — lower, 0
- AQMQGPYNFIQDSM(averaged) N8V (AQMQGPYVFIQDSM) — higher, 0.1991
- AQMQGPYNFIQDSM(averaged) F9S (AQMQGPYNSIQDSM) — lower, 0
- AQMQGPYNFIQDSM(averaged) G5Y (AQMQYPYNFIQDSM) — higher, 0.006993
- AQMQGPYNFIQDSM(averaged) Q11R (AQMQGPYNFIRDSM) — higher, 0.004534
- AQMQGPYNFIQDSM(averaged) P6T (AQMQGTYNFIQDSM) — higher, 0.1796
- AQMQGPYNFIQDSM(averaged) M3F (AQFQGPYNFIQDSM) — higher, 0.0581
- AQMQGPYNFIQDSM(averaged) G5R (AQMQRPYNFIQDSM) — lower, 0.0001509
- AQMQGPYNFIQDSM(averaged) M3N (AQNQGPYNFIQDSM) — higher, 0.00226
- AQMQGPYNFIQDSM(averaged) M3L (AQLQGPYNFIQDSM) — higher, 0.03704
- AQMQGPYNFIQDSM(averaged) S13L (AQMQGPYNFIQDLM) — lower, 0.0002731
- AQMQGPYNFIQDSM(averaged) Q11A (AQMQGPYNFIADSM) — higher, 0.001301
- AQMQGPYNFIQDSM(averaged) S13A (AQMQGPYNFIQDAM) — higher, 0.1575
- AQMQGPYNFIQDSM(averaged) F9Q (AQMQGPYNQIQDSM) — higher, 0.01043
- AQMQGPYNFIQDSM(averaged) N8D (AQMQGPYDFIQDSM) — higher, 0.05276
- AQMQGPYNFIQDSM(averaged) I10T (AQMQGPYNFTQDSM) — higher, 0.01974
- AQMQGPYNFIQDSM(averaged) D12R (AQMQGPYNFIQRSM) — higher, 0.003499
- AQMQGPYNFIQDSM(averaged) G5I (AQMQIPYNFIQDSM) — higher, 0.01217
- AQMQGPYNFIQDSM(averaged) I10Y (AQMQGPYNFYQDSM) — higher, 0.003704
- AQMQGPYNFIQDSM(averaged) F9D (AQMQGPYNDIQDSM) — higher, 0.037
- AQMQGPYNFIQDSM(averaged) N8A (AQMQGPYAFIQDSM) — higher, 0.06427
- AQMQGPYNFIQDSM(averaged) S13E (AQMQGPYNFIQDEM) — higher, 0.01271
- AQMQGPYNFIQDSM(averaged) A1E (EQMQGPYNFIQDSM) — higher, 0.1606
- AQMQGPYNFIQDSM(averaged) N8K (AQMQGPYKFIQDSM) — higher, 0.007096
- AQMQGPYNFIQDSM(averaged) P6G (AQMQGGYNFIQDSM) — higher, 0.006371
- AQMQGPYNFIQDSM(averaged) S13M (AQMQGPYNFIQDMM) — lower, 0
- AQMQGPYNFIQDSM(averaged) M14I (AQMQGPYNFIQDSI) — higher, 0.02696
- AQMQGPYNFIQDSM(averaged) N8E (AQMQGPYEFIQDSM) — higher, 0.01047
- AQMQGPYNFIQDSM(averaged) I10N (AQMQGPYNFNQDSM) — higher, 0.0004895
- AQMQGPYNFIQDSM(averaged) I10H (AQMQGPYNFHQDSM) — higher, 0.003149
- AQMQGPYNFIQDSM(averaged) F9V (AQMQGPYNVIQDSM) — higher, 0.0005113
- AQMQGPYNFIQDSM(averaged) A1S (SQMQGPYNFIQDSM) — higher, 0.001176
- AQMQGPYNFIQDSM(averaged) Q11M (AQMQGPYNFIMDSM) — higher, 0.0771
- AQMQGPYNFIQDSM(averaged) D12Q (AQMQGPYNFIQQSM) — higher, 0.008788
- AQMQGPYNFIQDSM(averaged) P6E (AQMQGEYNFIQDSM) — higher, 0.004474
- AQMQGPYNFIQDSM(averaged) N8N — higher, 0.08785
- AQMQGPYNFIQDSM(averaged) M3M — higher, 0.1084
- AQMQGPYNFIQDSM(averaged) G5K (AQMQKPYNFIQDSM) — higher, 0.001793
- AQMQGPYNFIQDSM(averaged) M3Y (AQYQGPYNFIQDSM) — higher, 0.01355
- AQMQGPYNFIQDSM(averaged) Y7K (AQMQGPKNFIQDSM) — lower, 0
- AQMQGPYNFIQDSM(averaged) A1Y (YQMQGPYNFIQDSM) — higher, 0.1391
- AQMQGPYNFIQDSM(averaged) P6P — higher, 0.3942
- AQMQGPYNFIQDSM(averaged) Q11K (AQMQGPYNFIKDSM) — lower, 0.0002863
- AQMQGPYNFIQDSM(averaged) A1L (LQMQGPYNFIQDSM) — higher, 0.06855
- AQMQGPYNFIQDSM(averaged) F9W (AQMQGPYNWIQDSM) — lower, 0
- AQMQGPYNFIQDSM(averaged) Q2K (AKMQGPYNFIQDSM) — higher, 0.006084
- AQMQGPYNFIQDSM(averaged) I10V (AQMQGPYNFVQDSM) — higher, 0.004849
- AQMQGPYNFIQDSM(averaged) Q4V (AQMVGPYNFIQDSM) — higher, 0.1002
- AQMQGPYNFIQDSM(averaged) P6H (AQMQGHYNFIQDSM) — higher, 0.008056
- AQMQGPYNFIQDSM(averaged) P6A (AQMQGAYNFIQDSM) — higher, 0.08584
- AQMQGPYNFIQDSM(averaged) Q2Q — higher, 0.0522
- AQMQGPYNFIQDSM(averaged) Q4D (AQMDGPYNFIQDSM) — higher, 0.3261
- AQMQGPYNFIQDSM(averaged) D12L (AQMQGPYNFIQLSM) — higher, 0.008174
- AQMQGPYNFIQDSM(averaged) D12Y (AQMQGPYNFIQYSM) — higher, 0.00358
- AQMQGPYNFIQDSM(averaged) M3W (AQWQGPYNFIQDSM) — higher, 0.07564
